Data from the METLIN SMRT retention time set (Domingo-Almenara et al. 2019).

Experiment: gradient 5% acetonitrile 3 min, to 50% in 2 min, to 85% in 15 min, held 3 min, 100 µL/min
Details: column: Zorbax Extend-C18 2.1 x 50 mm; eluents: water / acetonitrile, 0.1% formic acid
Method in brief: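 Over 3 months, pure standards in mixtures of ~100 molecules were run by HPLC coupled to a quadrupole time-of-flight mass spectrometer in positive and negative ionization mode. The column was a Zorbax Extend-C18 (2.1 × 50 mm, 1.8 μm) at 100 μL/min, eluted with water and acetonitrile each holding 0.1% formic acid, with 40 μL dead and 900 μL dwell volumes. Retention time was determined from adduct peaks chosen by software and checked manually.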

RP-LC retention time [s] | SMILES
907 | CCCNC(=O)c1cnn(-c2ccc(-c3nc(C(C)C)no3)cn2)c1C
973 | CC(C)N1C(=O)c2cccnc2Sc2cc(NC(=O)c3cc(Cl)ccc3F)ccc21
614 | CCC1CN2C=NC(N3CCN(C(=O)NCc4cccc(OC)c4)CC3)=CC2=N1 (configuration not stated)
738 | Clc1ccc(-c2ccc(CNCC3CCCO3)o2)c(Cl)c1 (configuration not stated)
1010 | CCCNS(=O)(=O)c1ccc(Cl)c(-c2nnc(-c3ccc(OC)cc3)o2)c1
836 | CCc1cccc(N2C=NS(=O)(=O)c3cccnc32)c1
884 | CCn1cc(-c2nc(C)c(C(=O)NCc3cc(F)cc(F)c3)s2)c2cccnc21
973 | CCCC(=O)Nc1nc(-c2ccccc2)c(C(=O)OCC)s1
611 | CC1CC(=O)c2cnc(N3CCN(c4ccccn4)CC3)nc2C1 (configuration not stated)
1050 | Cc1cccc(NC(=O)Nc2nccn(-c3ccc(Br)cc3)c2=O)c1
821 | CCc1ccc(N2C(=O)CN(S(=O)(=O)c3ccccc3)CC2(C)C(=O)NC2CCCC2)cc1 (configuration not stated)
977 | Cc1cccc(NC(=O)N2CCCC2c2nc(-c3ccccc3)no2)c1C (configuration not stated)
941 | CN(C)S(=O)(=O)c1cccc(-c2nnc(-c3ccccc3Cl)o2)c1
728 | O=C(NCc1ccccc1Br)C1CCCN(c2cnc3nccnc3c2)C1 (configuration not stated)
947 | O=C(NCC1CCN(C(=O)Oc2ccccc2)CC1)Nc1ccc(C(F)(F)F)cc1
679 | CC(C)CNC(=O)N1CCCC(c2nc(C(C)C)no2)CCNC(=O)CC1 (configuration not stated)
887 | CCOc1ccccc1NC(=O)CN1C(=O)C2CCCCN2c2ccc(S(=O)(=O)N(C)C)cc21 (configuration not stated)
762 | COc1ccc(CN2CCc3nc(N4CCN(c5ccccc5OC)CC4)ncc3C2)cc1
829 | Cc1csc(-c2ccc(N3CCN(C(=O)c4nccc5ccccc45)CC3)nc2)n1

RP-LC retention time [s] | SMILES
704 | COc1ccc(Cn2c(C)c(CNCCc3ccco3)c(C(=O)O)c2C)cc1
1080 | COc1cccc(Cn2c(=O)c3sccc3n(Cc3nc(-c4ccccc4Cl)no3)c2=O)c1
771 | CCCN1C(=O)COc2cc(-c3noc(C(=O)NCCc4ccc(S(N)(=O)=O)cc4)n3)ccc21
879 | Oc1ccccc1-c1nc2ccc(Cl)cn2c1Nc1ccc2c(c1)OCCO2
1020 | Cc1nc(-c2ccc3c(c2)CCN3C(=O)C2COc3ccccc3O2)cs1 (configuration not stated)
1190 | CC(C)(C)c1ccc(C(=O)CCCN2CCC(OC(c3ccccc3)c3ccccc3)CC2)cc1
1070 | Cc1ccc(Cn2cccc2C(=O)C(=O)NCc2ccco2)cc1C
962 | Cc1ccc(S(=O)(=O)[C@H]2CS(=O)(=O)C[C@@H]2N2CCN(c3ccc(F)cc3)CC2)cc1
1020 | COc1ccc(C)cc1NC(=O)N(C)CCc1noc(COc2cccc(C)c2)n1
949 | Cc1ccc(NC(=O)N2CCCC(C)(C(=O)NCc3ccc(F)cc3)C2)c(C)c1 (configuration not stated)
749 | CCN1c2ccc(F)cc2C(=O)NC12CCN(C(=O)c1ccc3c(c1)OCO3)CC2
924 | CN(C(=O)Cn1ccn2nc(-c3ccc(F)cc3)c(CO)c2c1=O)c1ccccc1
534 | CCC(=O)N1CCN(c2nc3c(s2)CC(C(=O)NCC(C)C)CC3)CC1 (configuration not stated)
814 | O=C(COc1ccc(Cl)cc1)N1CCN(c2cc(-c3ccccc3)[nH]n2)CC1
643 | CC(=O)Nc1c(C)noc1/C=C\c1ccc(S(=O)(=O)N2CCN(c3ccccn3)CC2)cc1
914 | CCOc1ccccc1-c1noc(Cn2cnc3c(oc4ccccc43)c2=O)n1
796 | CCc1nc(-c2csc(S(=O)(=O)N3CCC(C(=O)N4CCOCC4)CC3)c2)no1
1170 | c1cnn(-c2ccc(-c3noc(-c4ccc5c(c4)OCO5)n3)cn2)c1

The next lines start with the compound.

SMILES | RP-LC retention time [s]
COc1cc(C(=O)NCC(c2cccs2)N2CCOCC2)cc(OC)c1OC (configuration not stated) | 607
CCn1c(=O)c2cc(C(=O)NCc3ccc(N4CCC(C)CC4)cc3)nn2c2ccccc21 | 688
COc1ccc(NC(=O)NCC2(CO)CC2)cc1OC | 581
Cc1ccc(-c2ncccc2CNS(=O)(=O)Cc2ccccc2F)cc1 | 693
CC(C)Cn1c(=O)c(N2CCN(C(=O)NCc3ccc(F)cc3)CC2)nc2ccncc21 | 668
CN(C)c1ccc(C(=O)N2CCN(c3cc(-c4ccccc4)[nH]n3)CC2)cc1 | 757
COc1ccc(-c2nc(-c3ccc4c(c3)ncn4CCN3CCCCC3)no2)cc1 | 658
O=C(Nc1ccc(F)cc1F)C1CCCN(S(=O)(=O)c2c[nH]c(C(=O)N3CCCC3)c2)C1 (configuration not stated) | 792
Cn1c(C2CCN(S(=O)(=O)c3ccc(Cl)cc3)C2)nc2cccnc21 (configuration not stated) | 760
Cc1noc(C)c1CNC(=O)NCCc1ccccc1 | 689
O=C(c1ccccc1Br)N1CCN(c2cc(-c3ccc(F)cc3)[nH]n2)CC1 | 824
CS(=O)(=O)N1CCCc2cc(C(=O)N3CCC(C(N)=O)CC3)ccc21 | 604
Cc1ccc(NC(=O)N2CCN(c3ccc(=O)n(-c4ccccc4)n3)CC2)cc1 | 674
COC(=O)c1ccc(OC)c(Cn2cnc3c(-c4ccccc4C)csc3c2=O)c1 | 1060
CCCn1cc(S(=O)(=O)Nc2ccccc2OC)c2cccnc21 | 904
CCc1ccc(CNC(=O)Cn2c(CC)nc3onc(C)c3c2=O)cc1 | 907
Cc1oc2ncn(CC(=O)N3CCCc4ccccc43)c(=O)c2c1C | 838
O=C(C1CCN(S(=O)(=O)c2ccc3[nH]c4c(c3c2)CCCCC4)CC1)N1CCCC1 | 906
Cc1ccn2cc(-c3ccc(NC(=O)C(C)Oc4ccccc4)cc3)nc2n1 (configuration not stated) | 672
CCS(=O)(=O)N1CC(c2nc(-c3ccc(F)cc3)no2)C2(CCOCC2)C1 (configuration not stated) | 877
Brc1ccc(C(c2nnc(-c3ccccc3)o2)N2CCN(c3ccccn3)CC2)cc1 (configuration not stated) | 800
Cn1nc(-c2nc(-c3ccccc3)no2)c2c1CCN(C(=O)NC(C)(C)C)C2 | 780
N#Cc1cccc(NC(=O)Cn2cccc2-c2nc(-c3ccc4c(c3)OCO4)no2)c1 | 924
N#Cc1ccc(Cl)cc1NC(=O)c1cccn(Cc2cccc(C(F)(F)F)c2)c1=O | 1090
O=C(CN1CCN(Cc2nc(-c3ccc(F)cc3)cs2)CC1)NCc1ccco1 | 595

SMILES | RP-LC retention time [s]
Cc1noc(-c2ccc(OC3CN(S(=O)(=O)c4cn(C)cn4)C3)cc2)n1 | 796
Cc1ccc(-c2cc(C(=O)NCCc3ccc(S(N)(=O)=O)cc3)c(C)[nH]2)cc1C | 794
COc1cccc(NC(=O)CN2CCC(c3nc(-c4cccs4)no3)CC2)c1 | 680
O=C(NCCc1ccccc1)c1ccc2c(c1)CCN2C(=O)C1CC1 | 814
CCn1cc(-c2nc(C(=O)Nc3ccc(C)cc3)cs2)c2cccnc21 | 1160
c1cc2c(cc1-c1nnc(C3CC3)o1)OCO2 | 781
C=C1/C(=C/C=C2/CCC[C@]3(C)[C@@H]([C@H](C)CCCC(C)C)CC[C@@H]23)C[C@@H](O)C[C@@H]1O | 1220
O=S(=O)(c1cccn2c(SCc3cccc(F)c3)nnc12)N1CCc2ccccc2C1 | 959
CCOC(=O)c1csc(NC(=O)C2CCCN(c3cc(-n4cccn4)ncn3)C2)n1 (configuration not stated) | 796
CCN1CCN(CCCNC(=O)C2CCCN(c3ncnc4onc(C)c34)C2)CC1 (configuration not stated) | 557
CCC(C)NC(=O)C1CCN(S(=O)(=O)c2ccc3c(c2)CCCC(=O)N3)CC1 (configuration not stated) | 682
O=C(CSc1nc2ccccc2s1)N1CCN(C(=O)C2CC2c2ccccc2)CC1 (configuration not stated) | 867
Cn1c(=O)n([C@H]2CCN(C(=O)Nc3ccc4c(c3)OCCO4)C2)c2ncccc21 | 686
Cc1ccccc1NC(=O)NCCCn1c(C(F)(F)F)nc2cccnc21 | 761
COCCCNC(=O)C1CCN(c2cnn(Cc3ccccc3)c(=O)c2)CC1 | 651
O=C(Nc1ccc(F)cc1)N1CCC(n2c(-c3ccco3)nc3cccnc32)C1 (configuration not stated) | 749
COc1nccnc1N1CCC(N(C)C(=O)c2ccc3c(c2)OCO3)C1 (configuration not stated) | 694
CCc1ccc2c(c1)cc(S(=O)(=O)c1ccccc1)c(=O)n2CC(=O)NCc1ccc(F)cc1 | 971
Nc1nc(N)c2nc(-c3cccc(O)c3)c(-c3cccc(O)c3)nc2n1 | 630
CCOC(=O)c1c(C)[nH]c(C(=O)N2CCCC(C(=O)N3CCOCC3)C2)c1C (configuration not stated) | 672
COc1ccc(C(=O)O)nc1C | 552
CCC(C)C(NC(=O)CCc1ccccc1OC)C(=O)Nc1nc2ccccc2[nH]1 (configuration not stated) | 783
CN(C)c1ccc(CNC(=O)c2ccc3c(c2)N(C)C(=O)C2CCCCN32)cc1 (configuration not stated) | 628
Cc1nc2ccccc2c(=O)n1Cc1noc(Cc2ccc(Br)cc2)n1 | 917
Cc1ccc2ncn(C3CCN(S(=O)(=O)c4cc(C)c(C)cc4C)CC3)c(=O)c2c1 | 1050
